From US20120116095A1, “GLYCINE TRANSPORTER INHIBITORS” (TAISHO PHARMACEUTICAL C0., LTD., priority 2009, published 2012)
pIC50: −log10 of the molar value.

Key:
[1] = molecular target: T1, human type 1 glycine transporter (GlyT1) (Homo sapiens, UniProt P48067); test: Glycine uptake inhibition experiment ([3H]glycine uptake in T98G cells); assay type: cell-based; details: [3H]glycine 250 nM, 15 min, room temperature, read-out: glycine uptake inhibitory activity (IC50 value)
T1 construct: Glioma T98G cells endogenously expressing human type 1 glycine transporter (GlyT1) were used; endogenous in cells; host or cells: T98G human glioma cells
T1 sequence (P48067 1-706): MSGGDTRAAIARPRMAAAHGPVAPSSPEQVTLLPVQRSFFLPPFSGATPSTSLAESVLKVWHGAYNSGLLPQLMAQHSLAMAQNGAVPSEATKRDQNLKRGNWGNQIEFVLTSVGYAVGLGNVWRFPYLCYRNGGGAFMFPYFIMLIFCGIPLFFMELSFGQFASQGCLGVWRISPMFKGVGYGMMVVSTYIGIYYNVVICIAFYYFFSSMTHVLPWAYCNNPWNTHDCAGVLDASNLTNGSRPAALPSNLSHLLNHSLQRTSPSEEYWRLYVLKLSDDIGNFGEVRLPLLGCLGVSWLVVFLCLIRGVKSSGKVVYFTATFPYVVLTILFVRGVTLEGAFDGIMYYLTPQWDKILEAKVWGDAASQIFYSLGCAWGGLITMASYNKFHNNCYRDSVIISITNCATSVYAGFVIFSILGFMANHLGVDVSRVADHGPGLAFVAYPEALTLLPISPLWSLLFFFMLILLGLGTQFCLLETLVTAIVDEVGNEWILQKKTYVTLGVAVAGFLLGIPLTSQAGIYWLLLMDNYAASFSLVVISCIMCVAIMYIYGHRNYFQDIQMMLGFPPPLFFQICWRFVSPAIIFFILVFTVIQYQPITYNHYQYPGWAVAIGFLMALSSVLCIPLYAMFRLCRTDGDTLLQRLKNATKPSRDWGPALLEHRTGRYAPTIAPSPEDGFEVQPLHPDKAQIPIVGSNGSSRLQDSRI
Method: A glycine uptake experiment was conducted as described in Neuron, 8, 927-935, 1992. Glioma T98G cells endogenously expressing human type 1 glycine transporter (GlyT1) were used. T98G cells were seeded in a 96-well plate at 2.0×10^4 cells/well and cultured overnight in a CO2 incubator. A test compound was dissolved in a 100% DMSO solution and then dissolved in 10 mM HEPES buffer (pH 7.4) containing 150 mM sodium chloride, 1 mM calcium chloride, 5 mM potassium chloride, 1 mM magnesium chloride, 10 mM glucose and 0.2% bovine serum albumin. After removing the cell culture medium, the cells were pre-treated with the test compound for 10 minutes. Subsequently, the test compound and [^3H]glycine (final concentration: 250 nM) were added to the cells and incubated at room temperature for 15 minutes. After the incubation, the extracellular solution was aspirated with a manifold to remove the excess labeled glycine existing outside the cells, and the cells were then lysed with 0.5 M aqueous sodium hydroxide. The amount of glycine uptake was determined by measuring radioactivity in the cell lysate using a liquid scintillation counter. Glycine uptake in the presence of 10 μM ALX5407 was defined as non-specific uptake, and the value calculated by subtracting this non-specific uptake from the total uptake in the absence of 10 μM ALX5407 was defined as specific uptake. Moreover, an inhibition curve was obtained for each test compound at concentrations of […] to calculate the glycine uptake inhibitory activity (IC50 value) of each test substance.
It should be noted that ALX5407 is a HCl salt of N-[(3R)-3-([1,1′-biphenyl]-4-yloxy)-3-(4-fluorophenyl)propyl]-N-methylglycine.

P-glycoprotein (P-gp) = molecular target: T2, P-glycoprotein (P-gp) (Homo sapiens, UniProt P08183); test: Test for substrate recognition by P-gp (LLC-GA5-COL300 cells); assay type: in vitro ADME; details: 10 μM, Human MDR1-expressing LLC-GA5-COL300 cells, Apical to Basolateral and Basolateral to Apical
T2 construct: expressed in transfected cells; host or cells: LLC-GA5-COL300 (pig kidney LLC-PK1 cells expressing human MDR1)
Description: In the case of drugs that act on the central nervous system, it is generally important for such drugs to be transferred from blood into brain for development of their efficacy. In the blood-brain barrier, there is found P-glycoprotein (P-gp), which is a typical member of the efflux transporters that control drug penetration; and P-gp inhibits the penetration of its substrate drugs into the brain. Thus, in developing a drug, recognition performance as a P-gp substrate can be used as an indicator of brain penetration.
A test for substrate recognition by P-gp was conducted as described in J. Pharmacol. Exp. Ther. (1992) Vol. 263, No. 2, 840-845 and J. Biol. Chem. (1992) Vol. 267, No. 34, 24248-24252. Specifically, LLC-GA5-COL300 cells (i.e., a Human MDR1-expressing system originating from a pig kidney-derived cultured renal epithelial cell line, LLC-PK1) were used after being cultured for 4 days on trans wells, and the medium in each well was replaced by Hank's balanced salt solution (HBSS) immediately before use in the test. After a test compound solution (i.e., a DMSO solution of a test compound, which was further diluted with HBSS and adjusted to a final concentration of 10 μM) was added to the Donor side of the LLC-GA5-COL300 cells, aliquots of HBSS were sampled over time from the Acceptor side to determine the test compound concentration in each collected sample by LC-MS/MS.
The membrane permeability coefficient (×10^−6 cm/sec) was calculated by the accumulated amount of the compound into the Acceptor side for both directions, Apical to Basolateral and Basolateral to Apical. and the ratio of these coefficients (Efflux Ratio) was then used to evaluate substrate recognition by P-gp.

male Sprague-Dawley rats = test: Social recognition test (MK-801-treated rats); assay type: in vivo; details: rat; for Ratio (second exploration time/first exploration time): MK-801 0.1 mg/kg i.p.
Method: This experiment was performed using male Sprague-Dawley rats according to the reported method (Shimazaki et al., Psychopharmacology, 209, 263-270, 2010). Adult rats (9 weeks old) received intraperitoneal administration of MK-801 (0.1 mg/kg), and were immediately placed in test cages and acclimated for 30 minutes. Thereafter, juvenile rats (4 weeks old) were placed in the same test cages, where juvenile rats and adult rats were left for 5 minutes, during which the time it took for the adult rats to show social behavior (sniffing, grooming, following) to the juvenile rats was measured (first exploration time). Then, the juvenile rats were removed from the test cages and returned to their home cages. After 30 minutes, the same juvenile rats that were used in the first exploration were placed in the test cages, and the time it took for the adult rats to show social behavior (sniffing, grooming, following) to the juvenile rats during a 5-minute period was measured (second exploration time). The social recognition was expressed as the ratio of second exploration time to first exploration time. The test substance (Compound 10) was orally administered one hour before the start of first exploration. The vehicle group was administered a 0.5% methyl cellulose solution.

T2 sequence (P08183 whole entry): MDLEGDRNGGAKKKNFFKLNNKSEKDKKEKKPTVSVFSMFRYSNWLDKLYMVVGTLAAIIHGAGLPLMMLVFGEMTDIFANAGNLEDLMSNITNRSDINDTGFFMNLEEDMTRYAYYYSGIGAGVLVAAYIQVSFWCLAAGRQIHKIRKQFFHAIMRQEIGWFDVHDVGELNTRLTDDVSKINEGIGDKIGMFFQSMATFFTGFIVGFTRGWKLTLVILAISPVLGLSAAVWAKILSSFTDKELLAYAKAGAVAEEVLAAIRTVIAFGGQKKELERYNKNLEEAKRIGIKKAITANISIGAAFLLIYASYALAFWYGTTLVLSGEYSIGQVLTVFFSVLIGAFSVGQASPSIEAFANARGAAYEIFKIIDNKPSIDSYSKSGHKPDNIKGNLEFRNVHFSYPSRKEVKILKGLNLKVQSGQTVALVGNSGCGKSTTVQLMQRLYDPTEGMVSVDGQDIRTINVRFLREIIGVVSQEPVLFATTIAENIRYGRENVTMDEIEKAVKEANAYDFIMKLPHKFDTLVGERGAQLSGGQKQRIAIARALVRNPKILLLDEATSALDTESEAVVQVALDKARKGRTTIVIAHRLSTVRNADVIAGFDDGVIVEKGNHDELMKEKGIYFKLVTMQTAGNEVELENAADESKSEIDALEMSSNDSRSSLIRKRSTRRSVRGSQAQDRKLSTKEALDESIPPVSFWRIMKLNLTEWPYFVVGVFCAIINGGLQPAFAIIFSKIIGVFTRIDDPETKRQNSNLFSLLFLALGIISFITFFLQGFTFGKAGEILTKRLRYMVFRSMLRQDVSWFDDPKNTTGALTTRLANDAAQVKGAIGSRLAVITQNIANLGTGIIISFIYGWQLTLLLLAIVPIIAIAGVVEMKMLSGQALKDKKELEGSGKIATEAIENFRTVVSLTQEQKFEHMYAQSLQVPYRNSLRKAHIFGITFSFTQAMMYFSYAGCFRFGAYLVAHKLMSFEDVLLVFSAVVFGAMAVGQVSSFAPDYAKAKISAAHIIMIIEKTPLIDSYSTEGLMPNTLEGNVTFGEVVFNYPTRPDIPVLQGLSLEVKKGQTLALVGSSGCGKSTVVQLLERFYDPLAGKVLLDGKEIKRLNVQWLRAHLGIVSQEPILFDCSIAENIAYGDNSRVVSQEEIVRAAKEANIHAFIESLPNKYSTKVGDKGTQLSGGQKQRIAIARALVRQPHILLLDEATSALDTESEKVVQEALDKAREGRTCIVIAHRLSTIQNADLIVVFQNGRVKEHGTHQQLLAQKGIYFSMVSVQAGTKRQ

- pIC50 [1]: 7.83
- recognition as a P-gp substrate (Efflux Ratio criteria) (P-glycoprotein (P-gp)): not to be recognized as a P-gp substrate
Structure (SMILES): CC(C)N(Cc1ccc(F)c(-c2ccc(OC(F)(F)F)cc2)c1)C(=O)c1cn(C)cn1 [Compound 10, N-{[6-Fluoro-4′-(trifluoromethoxy)biphenyl-3-yl]methyl}-1-methyl-N-(propan-2-yl)-1H-imidazole-4-carboxamide]
- Ratio (second exploration time/first exploration time) (male Sprague-Dawley rats; 0.1 mg/kg orally one hour before first exploration, p<0.05): 0.65 ± 0.05 ^p<0.05
- Ratio (second exploration time/first exploration time) (male Sprague-Dawley rats; 0.3 mg/kg orally one hour before first exploration, p<0.01): 0.60 ± 0.06 ^p<0.01
- effect on cognitive functions (social recognition, in words) (male Sprague-Dawley rats; compared to the vehicle group, oral): enhancing effect on cognitive functions
